LD50 and Activity data for five compounds are collected here from ChEMBL document CHEMBL1123523, “Oxidation of 5-hydroxytryptamine and 5,7-dihydroxytryptamine. A new oxidation pathway and formation of a novel neurotoxin” (J Med Chem, 1986).

SMILES strings stand for the structures.

For one data set, the system named is Mus musculus. In words: Compound was tested for neurotoxic property after intracranial administration in mice. Type of data set: ADME, organism-based. To be noted: in vivo, other.
In turn, `NCCc1c[nH]c2c1C(=O)C(=O)C=C2O` yielded an LD50 of 20 µg.
In the case of `NCCc1cc(O)c(O)cc1O` [OXIDOPAMINE], the LD50 was found to be 80 µg.
The same measure, in the same setting: the result for `NCCc1cc(O)c(O)cc1N` reads 50 µg; that for `CC(N)Cc1cc(O)c(O)cc1N` (stereo unspecified), 45 µg; that for `NCCc1c[nH]c2c(O)cc(O)cc12`, 55 µg.

For another data set, the species on record is Mus musculus. In words: Compound was tested for lowering the norepinephrine levels in mouse brain expressed as percent of control values. Type of data set: functional.
Details: not given
Take `NCCc1c[nH]c2c1C(=O)C(=O)C=C2O`: the Activity was 87%.
